# Test results reported in patent US20250312499A1, “KISSPEPTIN RECEPTOR (KISS1R) TARGETED THERAPEUTICS AND USES THEREOF” (priority 2024, published 2025).
# Numbered stars: 1 amine (or outer) side, 2 acyl side, 3 side chain; on linkers, the order of the positions; unused ones are H or OH. Square brackets hold non-standard residues; d marks the D form. Peptide text beside a SMILES is read from it. * marks the point of attachment. DOTA = O=C(O)CN1CCN(CC(=O)O)CCN(CC(=O)*)CCN(CC(=O)O)CC1; Ala(9-anthryl) = N[C@@H](Cc1c2ccccc2cc2ccccc12)C(=O)O; Gly(N-(3-F-4-Me-benzyl)) = Cc1ccc(CNCC(=O)*)cc1F; Api(1-amidino) = N=C(N)N1CCC(N)(C(=O)O)CC1; Hydrocinnamoyl(4-Me) = Cc1ccc(CCC(=O)*)cc1; Bip = N[C@@H](Cc1ccc(-c2ccccc2)cc1)C(=O)O; Hydrocinnamoyl(4-I) = O=C(CCc1ccc(I)cc1)*; Phe(4-CN) = N#Cc1ccc(C[C@H](N)C(=O)O)cc1; X3 = CNC(=N)N1CCC(N[*:1])(C(=O)[*:2])CC1; HO(CH2CH2O)2CH2CH2CO = O=C(CCOCCOCCO)*; 2Nal = N[C@@H](Cc1ccc2ccccc2c1)C(=O)O; d2Nal = N[C@H](Cc1ccc2ccccc2c1)C(=O)O; 4Pal = N[C@@H](Cc1ccncc1)C(=O)O; Cha = N[C@@H](CC1CCCCC1)C(=O)O; 4Amb = NCc1ccc(C(=O)O)cc1; Api = NC1(C(=O)O)CCNCC1; PEG2 = NCCOCCOCCC(=O)O; AEEA = NCCOCCOCC(=O)O; Ahx = NCCCCCC(=O)O; azaGly = NNC(=O)O; Sar = CNCC(=O)O
# Target: human kisspeptin receptor (Homo sapiens (Human), UniProt Q969F8)
# Experiment: Human KISS1R binding assay (membrane competition binding)
# Details: 90 min at room temperature; competition with 0.2 nM [125I]-metastin (45-54); Flp-In T-Rex 293 kisspeptin membranes; metal complexes nonradioactive Ga, In, Lu; read-out: hKiSSR Binding Ki (90 min)
# In short: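 Radioligand competition: 0.2 nM [125I]-metastin (45-54) displaced by test ligand (usually 0–10,000 nM) over 90 min at room temperature, pH 7.4 buffer with 0.1% BSA. Receptor source is crude membrane (5–10 μg) from tetracycline-induced Flp-In T-Rex 293 cells. Bound label filtered and counted; Ki from non-linear regression.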
# human kisspeptin receptor, sequence (Q969F8 whole entry): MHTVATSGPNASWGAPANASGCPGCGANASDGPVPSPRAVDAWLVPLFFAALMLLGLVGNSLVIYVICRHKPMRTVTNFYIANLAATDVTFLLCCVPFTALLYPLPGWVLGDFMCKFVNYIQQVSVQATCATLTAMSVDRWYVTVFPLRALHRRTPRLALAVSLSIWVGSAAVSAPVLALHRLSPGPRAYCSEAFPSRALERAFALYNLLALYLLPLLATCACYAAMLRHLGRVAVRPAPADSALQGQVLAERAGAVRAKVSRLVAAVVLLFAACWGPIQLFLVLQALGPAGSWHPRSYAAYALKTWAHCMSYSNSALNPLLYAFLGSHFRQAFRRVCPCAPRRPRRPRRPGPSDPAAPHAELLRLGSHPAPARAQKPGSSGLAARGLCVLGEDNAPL
row,Ki,Compound
1,< 0.01 µM,CC(C)C[C@H](NC(=O)NNC(=O)[C@H](Cc1ccccc1)NC(=O)[C@@H](NC(=O)[C@H](CC(N)=O)NC(=O)[C@@H](Cc1ccc2ccccc2c1)NC(=O)[C@@H](Cc1ccc(O)cc1)NC(=O)CCCCCNC(=O)CN1CCN(CC(=O)O)CCN(CC(=O)O)CCN(CC(=O)O)CC1)[C@@H](C)O)C(=O)NC1(C(=O)N[C@H](Cc2c[nH]c3ccccc23)C(N)=O)CCNCC1 [Compound 339] ({DOTA-Ahx}-[dY][d2Nal]NTF[azaGly]L[Api][dW]-NH2)
2,< 0.01 µM,CC(C)C[C@H](NC(=O)NNC(=O)[C@H](Cc1ccccc1)NC(=O)[C@@H](NC(=O)[C@H](CC(N)=O)NC(=O)[C@@H](Cc1ccc2ccccc2c1)NC(=O)[C@@H](Cc1ccc(O)cc1)NC(=O)CCOCCOCCNC(=O)CCc1ccc(I)cc1)[C@@H](C)O)C(=O)NC1(C(=O)N[C@@H](Cc2ccc(O)cc2)C(N)=O)CCN(C(=N)N)CC1 [Compound 397] ({Hydrocinnamoyl(4-I)-PEG2}-[dY][d2Nal]NTF[azaGly]L[Api(1-amidino)]Y-NH2)
3,< 0.01 µM,Cc1ccc(CNCC(=O)N2CCC(NC(=O)[C@H](CC(C)C)NC(=O)NNC(=O)[C@H](Cc3ccccc3)NC(=O)[C@@H](NC(=O)[C@H](CC(N)=O)NC(=O)[C@H](Cc3ccc4ccccc4c3)NC(=O)[C@@H](Cc3ccc(O)cc3)NC(=O)COCCOCCNC(=O)CN3CCN(CC(=O)O)CCN(CC(=O)O)CCN(CC(=O)O)CC3)[C@@H](C)O)(C(=O)N[C@@H](Cc3c[nH]c4ccccc34)C(N)=O)CC2)cc1F [Compound 58] ({DOTA-AEEA}-[dY][2Nal]NTF[azaGly]L[Api](Gly(N-(3-F-4-Me-benzyl)))W-NH2)
4,< 0.01 µM,CC(C)C[C@H](NC(=O)NNC(=O)[C@H](Cc1ccccc1)NC(=O)[C@@H](NC(=O)[C@H](CC(N)=O)NC(=O)[C@H](Cc1c2ccccc2cc2ccccc12)NC(=O)[C@@H](Cc1ccc(O)cc1)NC(=O)CN1CCN(CC(=O)O)CCN(CC(=O)O)CCN(CC(=O)O)CC1)[C@@H](C)O)C(=O)NC1(C(=O)N[C@@H](Cc2ccncc2)C(N)=O)CCN(C(=N)N)CC1 [Compound 221] ({DOTA}-[dY][Ala(9-anthryl)]NTF[azaGly]L[Api(1-amidino)][4Pal]-NH2)
5,< 0.01 µM,Cc1ccc(CNCC(=O)N2CCC(NC(=O)[C@H](CC(C)C)NC(=O)NNC(=O)[C@H](Cc3ccccc3)NC(=O)[C@@H](NC(=O)[C@H](CC(N)=O)NC(=O)[C@@H](Cc3c[nH]c4ccccc34)NC(=O)[C@H](CC(N)=O)NC(=O)[C@@H](Cc3ccc(O)cc3)NC(=O)CCCCCNC(=O)CN3CCN(CC(=O)O)CCN(CC(=O)O)CCN(CC(=O)O)CC3)[C@@H](C)O)(C(=O)N[C@@H](Cc3ccncc3)C(N)=O)CC2)cc1F [Compound 106] ({DOTA-Ahx}-[dY]N[dW]NTF[azaGly]L[Api](Gly(N-(3-F-4-Me-benzyl)))[4Pal]-NH2)
6,< 0.01 µM,CNCC(=O)N1CCC(NC(=O)[C@H](CC(C)C)NC(=O)NNC(=O)[C@H](CC2CCCCC2)NC(=O)[C@@H](NC(=O)[C@H](CC(N)=O)NC(=O)[C@H](CCCCNC(=O)CN2CCN(CC(=O)O)CCN(CC(=O)O)CCN(CC(=O)O)CC2)NC(=O)[C@@H](Cc2ccc(O)cc2)NC(=O)CCOCCOCCNC(=O)CCc2ccc(C)cc2)[C@@H](C)O)(C(=O)N[C@@H](Cc2c[nH]c3ccccc23)C(N)=O)CC1 [Compound 387] ({Hydrocinnamoyl(4-Me)-PEG2}-[dY]K(DOTA)NT[Cha][azaGly]L[Api](Sar)W-NH2)
7,< 0.01 µM,CNCC(=O)N1CCC(NC(=O)[C@H](CC(C)C)NC(=O)NNC(=O)[C@H](Cc2ccccc2)NC(=O)[C@@H](NC(=O)[C@H](CC(N)=O)NC(=O)[C@@H](Cc2ccc3ccccc3c2)NC(=O)[C@H](N)Cc2ccc(O)cc2)[C@@H](C)O)(C(=O)N[C@@H](Cc2c[nH]c3ccccc23)C(N)=O)CC1 [Compound 408] (H-[dY][d2Nal]NTF[azaGly]L[Api](Sar)W-NH2)
8,< 0.01 µM,Cc1ccc(CNCC(=O)N2CCC(NC(=O)[C@H](CC(C)C)NC(=O)NNC(=O)[C@H](Cc3ccccc3)NC(=O)[C@@H](NC(=O)[C@H](CC(N)=O)NC(=O)[C@@H](CCC(=O)O)NC(=O)c3ccc(CNC(=O)CN4CCN(CC(=O)O)CCN(CC(=O)O)CCN(CC(=O)O)CC4)cc3)[C@@H](C)O)(C(=O)N[C@@H](Cc3ccc(O)cc3)C(N)=O)CC2)cc1F [Compound 206] ({DOTA-4Amb}-[dE]NTF[azaGly]L[Api](Gly(N-(3-F-4-Me-benzyl)))Y-NH2)
9,< 0.01 µM,CC(C)C[C@H](NC(=O)NNC(=O)[C@H](Cc1ccccc1)NC(=O)[C@@H](NC(=O)[C@H](CC(N)=O)NC(=O)[C@@H](Cc1ccc2ccccc2c1)NC(=O)[C@H](N)Cc1ccc(O)cc1)[C@@H](C)O)C(=O)NC1(C(=O)N[C@@H](Cc2c[nH]c3ccccc23)C(N)=O)CCN(C(=N)N)CC1 [Compound 411] (H-[dY][d2Nal]NTF[azaGly]L[Api(1-amidino)]W-NH2)
10,< 0.01 µM,Cc1ccc(CNCC(=O)N2CCC(NC(=O)[C@H](CC(C)C)NC(=O)NNC(=O)[C@H](Cc3ccccc3)NC(=O)[C@@H](NC(=O)[C@H](CC(N)=O)NC(=O)[C@H](CCCCNC(=O)CN3CCN(CC(=O)O)CCN(CC(=O)O)CCN(CC(=O)O)CC3)NC(=O)CCOCCOCCO)[C@@H](C)O)(C(=O)N[C@@H](Cc3ccncc3)C(N)=O)CC2)cc1F [Compound 253] ({HO(CH2CH2O)2CH2CH2CO}-K(DOTA)NTF[azaGly]L[Api](Gly(N-(3-F-4-Me-benzyl)))[4Pal]-NH2)
11,< 0.01 µM,CC(C)C[C@H](NC(=O)NNC(=O)[C@H](Cc1ccccc1)NC(=O)[C@@H](NC(=O)[C@H](CC(N)=O)NC(=O)[C@@H](CCCCNC(=O)CN1CCN(CC(=O)O)CCN(CC(=O)O)CCN(CC(=O)O)CC1)NC(=O)[C@@H](Cc1ccc(O)cc1)NC(=O)CCOCCOCCNC(=O)CCc1ccc(I)cc1)[C@@H](C)O)C(=O)NC1(C(=O)N[C@@H](Cc2c[nH]c3ccccc23)C(N)=O)CCN(C(=N)N)CC1 [Compound 334] ({Hydrocinnamoyl(4-I)-PEG2}-[dY][dK](DOTA)NTF[azaGly]L[Api(1-amidino)]W-NH2)
12,< 0.01 µM,Cc1ccc(CNCC(=O)N2CCC(NC(=O)[C@H](CC(C)C)SCCNC(=O)[C@H](Cc3ccccc3)NC(=O)CCCCCNC(=O)CN3CCN(CC(=O)O)CCN(CC(=O)O)CCN(CC(=O)O)CC3)(C(=O)N[C@@H](Cc3c[nH]c4ccccc34)C(N)=O)CC2)cc1F [Compound 8]
13,> 0.1 µM,CNC(=N)N1CCC(NC(=O)[C@H](CC(C)C)NC(=O)NNC(=O)[C@H](Cc2ccccc2)NC(=O)CCCCCNC(=O)CN2CCN(CC(=O)O)CCN(CC(=O)O)CCN(CC(=O)O)CC2)(C(=O)N[C@@H](Cc2c[nH]c3ccccc23)C(N)=O)CC1 [Compound 189] ({DOTA-Ahx}-F[azaGly]L[X3]W-NH2)
14,< 0.01 µM,Cc1ccc(CNCC(=O)N2CCC(NC(=O)[C@H](CC(C)C)NC(=O)NNC(=O)[C@H](Cc3ccccc3)NC(=O)[C@@H](NC(=O)[C@H](CC(N)=O)NC(=O)[C@@H](CCC(=O)O)NC(=O)c3ccc(CNC(=O)CN4CCN(CC(=O)O)CCN(CC(=O)O)CCN(CC(=O)O)CC4)cc3)[C@@H](C)O)(C(=O)N[C@@H](Cc3ccc(C#N)cc3)C(N)=O)CC2)cc1F [Compound 242] ({DOTA-4Amb}-[dE]NTF[azaGly]L[Api](Gly(N-(3-F-4-Me-benzyl)))[Phe(4-CN)]-NH2)
15,< 0.01 µM,CC(C)C[C@H](NC(=O)NNC(=O)[C@H](Cc1ccccc1)NC(=O)[C@@H](NC(=O)[C@H](CC(N)=O)NC(=O)[C@@H](Cc1ccc2ccccc2c1)NC(=O)[C@@H](Cc1ccc(O)cc1)NC(=O)CCOCCOCCNC(=O)CCc1ccc(I)cc1)[C@@H](C)O)C(=O)NC1(C(=O)N[C@@H](Cc2ccccc2)C(N)=O)CCN(C(=N)N)CC1 [Compound 396] ({Hydrocinnamoyl(4-I)-PEG2}-[dY][d2Nal]NTF[azaGly]L[Api(1-amidino)]F-NH2)
16,< 0.01 µM,Cc1ccc(CNCC(=O)N2CCC(NC(=O)[C@H](CC(C)C)NC(=O)NNC(=O)[C@H](Cc3ccccc3)NC(=O)[C@@H](NC(=O)[C@H](CC(N)=O)NC(=O)c3ccc(CNC(=O)[C@H](Cc4ccc(O)cc4)NC(=O)CNC(=O)CN4CCN(CC(=O)O)CCN(CC(=O)O)CCN(CC(=O)O)CC4)cc3)[C@@H](C)O)(C(=O)N[C@@H](Cc3c[nH]c4ccccc34)C(N)=O)CC2)cc1F [Compound 213] ({DOTA}-GY[4Amb]NTF[azaGly]L[Api](Gly(N-(3-F-4-Me-benzyl)))W-NH2)
17,< 0.01 µM,Cc1ccc(CNCC(=O)N2CCC(NC(=O)[C@H](CC(C)C)NC(=O)NNC(=O)[C@H](Cc3ccccc3)NC(=O)[C@@H](NC(=O)[C@H](CC(N)=O)NC(=O)CCCCCNC(=O)CN3CCN(CC(=O)O)CCN(CC(=O)O)CCN(CC(=O)O)CC3)[C@@H](C)O)(C(=O)N[C@@H](Cc3c[nH]c4ccccc34)C(N)=O)CC2)cc1F [Compound 26] ({DOTA-Ahx}-NTF[azaGly]L[Api](Gly(N-(3-F-4-Me-benzyl)))W-NH2)
18,0.01 to 0.1 µM,CC(C)C[C@H](NC(=O)NNC(=O)[C@H](Cc1ccc(-c2ccccc2)cc1)NC(=O)[C@@H](NC(=O)[C@H](CC(N)=O)NC(=O)[C@@H](Cc1c[nH]c2ccccc12)NC(=O)[C@@H](Cc1ccc(O)cc1)NC(=O)CCCCCNC(=O)CN1CCN(CC(=O)O)CCN(CC(=O)O)CCN(CC(=O)O)CC1)[C@@H](C)O)C(=O)NC1(C(=O)N[C@@H](Cc2c[nH]c3ccccc23)C(N)=O)CCN(C(=N)N)CC1 [Compound 271] ({DOTA-Ahx}-[dY][dW]NT[Bip][azaGly]L[Api(1-amidino)]W-NH2)
19,< 0.01 µM,Cc1ccc(CNCC(=O)N2CCC(NC(=O)[C@H](CC(C)C)NC(=O)NNC(=O)[C@H](Cc3ccccc3)NC(=O)[C@@H](NC(=O)[C@H](CC(N)=O)NC(=O)[C@H](CCCCNC(=O)CN3CCN(CC(=O)O)CCN(CC(=O)O)CCN(CC(=O)O)CC3)NC(=O)[C@@H](Cc3ccc(O)cc3)NC(=O)CCOCCOCCO)[C@@H](C)O)(C(=O)N[C@@H](Cc3c[nH]c4ccccc34)C(N)=O)CC2)cc1F [Compound 379] ({HO(CH2CH2O)2CH2CH2CO}-[dY]K(DOTA)NTF[azaGly]L[Api](Gly(N-(3-F-4-Me-benzyl)))W-NH2)
